Assay results reported in PubChem BioAssay AID248 (DTP/NCI, 2004).
Inconclusive results and toxic doses are left out.

Tested on: L1210 leukemia ip in BDF1 mice, survival T/C
Experiment: NCI In Vivo Anticancer Drug Screen. Data for tumor model L1210 Leukemia (intraperitoneal) in B6D2F1 (BDF1) mice
Settings: endpoint: mean survival time, higher = longer survival
In short: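 Transplanted-tumor mice were given test agent; controls received vehicle only. Survival readings from the two groups were divided (treated over control).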

## O=C(O)C1CC(c2ccc(Cl)cc2)OC1=O (configuration not stated)
dose: 100.0 mg/kg/injection, schedule: Q04DX003 (ip), vehicle: saline
  T/C: 101 % of control
dose: 200.0 mg/kg/injection, schedule: Q04DX003 (ip), vehicle: saline
  T/C: 104 % of control
dose: 400.0 mg/kg/injection, schedule: Q04DX003 (ip), vehicle: saline
  T/C: 101 % of control

## O=CNCCNC=O
dose: 100.0 mg/kg/injection, schedule: Q01DX009 (ip), vehicle: saline
  T/C: 102 % of control
dose: 200.0 mg/kg/injection, schedule: Q01DX009 (ip), vehicle: saline
  T/C: 104 % of control
dose: 400.0 mg/kg/injection, schedule: Q01DX009 (ip), vehicle: saline
  T/C: 98 % of control

## Nc1ccc(OCCNC(=O)Nc2ccc(S(=O)(=O)F)cc2)c(Cl)c1
dose: 75.0 mg/kg/injection, schedule: Q01DX001 (ip), vehicle: other
  T/C: 96 % of control
dose: 150.0 mg/kg/injection, schedule: Q01DX001 (ip), vehicle: other
  T/C: 105 % of control
dose: 300.0 mg/kg/injection, schedule: Q01DX001 (ip), vehicle: other
  T/C: 98 % of control

## CC(C)=CCC/C(C)=C/COC(=O)C(CC=C(C)C)CCN1CCN(CC=C(C)C)CC1 (configuration not stated)
dose: 100.0 mg/kg/injection, schedule: Q01DX009 (ip), vehicle: saline with Tween-80
  T/C: 98 % of control
dose: 100.0 mg/kg/injection, schedule: Q04DX002 (ip), vehicle: Klucel (hydroxypropylcellulose) (HPC)
  T/C: 88 % of control
dose: 200.0 mg/kg/injection, schedule: Q01DX009 (ip), vehicle: saline with Tween-80
  T/C: 92 % of control
dose: 200.0 mg/kg/injection, schedule: Q04DX002 (ip), vehicle: Klucel (hydroxypropylcellulose) (HPC)
  T/C: 92 % of control
dose: 400.0 mg/kg/injection, schedule: Q04DX002 (ip), vehicle: Klucel (hydroxypropylcellulose) (HPC)
  T/C: 98 % of control

## CCCOP(=S)(N1CC1(C)C)N1CC1(C)C (configuration not stated)
dose: 3.0 mg/kg/injection, schedule: Q01DX015 (ip), vehicle: carboxymethylcellulose (CMC)
  T/C: 112 % of control
dose: 6.0 mg/kg/injection, schedule: Q01DX015 (ip), vehicle: carboxymethylcellulose (CMC)
  T/C: 105 % of control
dose: 12.0 mg/kg/injection, schedule: Q01DX015 (ip), vehicle: carboxymethylcellulose (CMC)
  T/C: 106 % of control
dose: 25.0 mg/kg/injection, schedule: Q01DX015 (ip), vehicle: carboxymethylcellulose (CMC)
  T/C: 110 % of control
dose: 44.0 mg/kg/injection, schedule: Q01DX Z (ip), vehicle: carboxymethylcellulose (CMC)
  T/C: 103 % of control
dose: 50.0 mg/kg/injection, schedule: Q01DX015 (ip), vehicle: carboxymethylcellulose (CMC)
  T/C: 115 % of control
dose: 67.0 mg/kg/injection, schedule: Q01DX Z (ip), vehicle: carboxymethylcellulose (CMC)
  T/C: 113 % of control
dose: 100.0 mg/kg/injection, schedule: Q01DX015 (ip), vehicle: carboxymethylcellulose (CMC)
  T/C: 151 % of control
dose: 100.0 mg/kg/injection, schedule: Q01DX Z (ip), vehicle: carboxymethylcellulose (CMC)
  T/C: 111 % of control
dose: 150.0 mg/kg/injection, schedule: Q01DX Z (ip), vehicle: carboxymethylcellulose (CMC)
  T/C: 122 % of control

## CCC1(C)CC(=O)NC(=O)C1
dose: 0.9 mg/kg/injection, schedule: Q01DX009 (ip), vehicle: saline
  T/C: 98 % of control
dose: 1.87 mg/kg/injection, schedule: Q01DX009 (ip), vehicle: saline
  T/C: 108 % of control
dose: 3.75 mg/kg/injection, schedule: Q01DX009 (ip), vehicle: saline
  T/C: 104 % of control
dose: 3.75 mg/kg/injection, schedule: Q04DX003 (ip), vehicle: saline
  T/C: 106 % of control
dose: 5.0 mg/kg/injection, schedule: Q04DX003 (ip), vehicle: saline with Tween-80
  T/C: 101 % of control
dose: 7.5 mg/kg/injection, schedule: Q01DX009 (ip), vehicle: saline
  T/C: 106 % of control
dose: 7.5 mg/kg/injection, schedule: Q04DX003 (ip), vehicle: saline
  T/C: 92 % of control
dose: 10.0 mg/kg/injection, schedule: Q04DX003 (ip), vehicle: saline with Tween-80
  T/C: 97 % of control
dose: 15.0 mg/kg/injection, schedule: Q01DX009 (ip), vehicle: saline
  T/C: 100 % of control
dose: 15.0 mg/kg/injection, schedule: Q04DX003 (ip), vehicle: saline
  T/C: 95 % of control

## CC(C)(C)C1Sc2nc3ccccc3n2C1=O (configuration not stated)
dose: 12.5 mg/kg/injection, schedule: Q01DX009 (ip), vehicle: Klucel (hydroxypropylcellulose) (HPC)
  T/C: 101 % of control
dose: 12.5 mg/kg/injection, schedule: Q04DX003 (ip), vehicle: Klucel (hydroxypropylcellulose) (HPC)
  T/C: 98 % of control
dose: 25.0 mg/kg/injection, schedule: Q01DX009 (ip), vehicle: Klucel (hydroxypropylcellulose) (HPC)
  T/C: 97 % of control
dose: 25.0 mg/kg/injection, schedule: Q04DX003 (ip), vehicle: Klucel (hydroxypropylcellulose) (HPC)
  T/C: 92 % of control
dose: 50.0 mg/kg/injection, schedule: Q01DX009 (ip), vehicle: Klucel (hydroxypropylcellulose) (HPC)
  T/C: 96 % of control
dose: 50.0 mg/kg/injection, schedule: Q04DX003 (ip), vehicle: Klucel (hydroxypropylcellulose) (HPC)
  T/C: 92 % of control

## CCOC(=O)CCN(C(=O)Nc1ccccc1)C1CCCCC1
dose: 100.0 mg/kg/injection, schedule: Q01DX Z (ip), vehicle: methylcellulose (MC)
  T/C: 92 % of control
dose: 200.0 mg/kg/injection, schedule: Q01DX Z (ip), vehicle: methylcellulose (MC)
  T/C: 97 % of control
